The source of these data is patent publication US7169925B2, “Indole derivatives as interleukin-4 gene expression inhibitors” (Aventis Pharmaceuticals Inc., priority 2002, dated 2007).

In general, melting point refers to the temperature, or range, at which the solid turns liquid.

One data set has as its system Swiss 3T3 fibroblasts. The data set can be described thus: In vitro cytotoxicity assay on contact inhibited, non-dividing 3T3 fibroblasts (MTS). In kind it is cell-based. As to the method: Other toxicity assays may be used.
Any compound killing 3T3 fibroblast cells was omitted from further studies.
Contact inhibited Swiss 3T3 fibroblasts are purchased from ATCC.
All compound dilutions are assayed in triplicate. […] Cells are returned to the incubator for 2 days.
Media is added to blank wells for background calculations.
Note that starting concentration of CsA was 1 μM.

The nature of data set [1]: Oral bioavailability (statement). In kind it is in vivo.
A further data set can be described thus: Solubility (statement). In kind it is physicochemical.
The nature of data set [2]: Sheep asthma model (Ascaris suum antigen challenge, specific lung resistance, PC400). Format: in vivo. As to the method:
Briefly, transpulmonary pressure, pulmonary resistance (RL), specific lung resistance (SRL airway hyper reactivity, airway responsiveness, are determined.
Venous blood samples (˜5 ml) are obtained from a peripheral leg vein or the jugular vein for pharmacokinetic data. Measurement of Airway Mechanics: The unsedated sheep are restrained in a cart in the prone position with their heads immobilized. After topical anesthesia of the nasal passages with 2% lidocaine solution, a balloon catheter is advanced through one nostril into the lower esophagus. The animals are […] with a cuffed endotracheal tube through the other nostril using a flexible fiberoptic bronchoscope as a guide. (The cuff of the endotracheal tube is inflated only for the measurement of airway mechanics and during aerosol challenges to prevent undue discomfort. This procedure has no effect on airway mechanics). Pleural pressure is estimated with the esophageal balloon catheter (filled with one ml of air) which is positioned 5–10 cm from the gastroesophageal junction. In this position the end expiratory pleural pressure ranges between −2 and −5 cm H2O. Once the balloon is placed, it is secured so that it remains in position for the duration of the experiment. Lateral pressure in the trachea is measured with a sidehole catheter (inner dimension, 2.5 mm) advanced through and positioned distal to the tip of the endotracheal tube. Transpulmonary pressure, the difference between tracheal and pleural pressure, is measured with a differential pressure transducer catheter system. […] The signals of flow and transpulmonary pressure is recorded on an oscilloscope recorder which is linked to a computer for on-line calculation of RL from transpulmonary pressure, respiratory volume (obtained by digital integration) and flow. […] Immediately after the measurement of RL, thoracic gas volume (Vtg) is measured in a constant volume body plethysmograph to obtain specific lung resistance (SRL=RL·Vtg) in L×cm H2O/LPS. […]

The mark [3] stands for this setting: 3 mg/kg aerosol 30 min before antigen challenge, 2 sheep (FIG. 3A).

The structures appear in SMILES notation. Structures can show the parent of a compound that is named as a salt. Starred links: 1 amine or outer side, 2 acyl side, 3 side chain; linkers in the order of their positions; H or OH if unused. Positions of bridges follow the written chain, without caps; N, C: chain ends. Non-standard residues stand in square brackets, D forms with d. Residues, ends and D or L forms follow the SMILES beside them. Chains are numbered I, II in the order given. Actinocin(9to1) = Cc1c2oc3c(C)ccc(C(=O)[*:1])c3nc-2c(C(=O)[*:2])c(N)c1=O; NMeV = CN[C@H](C(=O)O)C(C)C; Sar = CNCC(=O)O

With `Cn1c(C(=O)O)c(Nc2ccncc2)c2ccccc21.O=C(O)/C=C\C(=O)O`, the melting point was 192 to 194 °C (dec.).
The same measure, in the same setting: as for `O=C(O)c1[nH]c2cccc(F)c2c1Nc1ccncc1` (as salt: trifluoroacetate), the figure is 231 to 234 °C (dec.); as for `COc1ccc2[nH]c(C(=O)O)c(Nc3ccncc3)c2c1` (as salt: trifluoroacetate), 211 to 213 °C.
Same read-out and setting: to `Cn1c(C(=O)O)c(Nc2ccncc2)c2c(F)cccc21` (as salt: trifluoroacetate) [Example 31, 4-Fluoro-1-Methyl-3-(4-pyridinylamino)-1H-indole-2-carboxylic acid Trifluoroacetate Salt] belongs 197 to 199 °C.
On to `Cc1c2oc3c(C)ccc(C(=O)N[C@@H]4C(=O)N[C@H](C(C)C)C(=O)N5CCC[C@H]5C(=O)N(C)CC(=O)N(C)[C@@H](C(C)C)C(=O)O[C@@H]4C)c3nc-2c(C(=O)N[C@@H]2C(=O)N[C@H](C(C)C)C(=O)N3CCC[C@H]3C(=O)N(C)CC(=O)N(C)[C@@H](C(C)C)C(=O)O[C@@H]2C)c(N)c1=O` [Actinomycin D] (I: T[dV]P[Sar][NMeV] / II: T[dV]P[Sar][NMeV]; ester I:1-I:C, II:1-II:C; linker I:N-II:N via Actinocin(9to1)), for which the “viability of quiescent 3T3 cells, % control” value (“viability … % control” for short) in the data set with Swiss 3T3 fibroblasts (0.001 μM, 2 day incubation) amounted to 79.0 % control. The “toxic effects on quiescent 3T3 cells (in words)” value in the data set on Swiss 3T3 fibroblasts (non-dividing 3T3 cells) is “effected the viability”.
Turning to `C[C@@H]1C[C@H]2[C@@H]3CCC4=CC(=O)C=C[C@]4(C)[C@@]3(F)[C@@H](O)C[C@]2(C)[C@@]1(O)C(=O)CO` [Dexamethasone], the “viability … % control” value in the data set with Swiss 3T3 fibroblasts (mouse, 2 days, 0.001 μM) was determined as 100.0 % control.
`CC(C)(C)OC(=O)c1[nH]c2cccc(F)c2c1Nc1ccncc1` [Example 17, 4-fluoro-3-(4-pyridinylamino)-1H-indole-2-carboxylic tert-butyl ester] returned a melting point of 210 to 212 °C.
Molecule `COc1ccc2[nH]c(C(=O)OC(C)(C)C)c(Nc3ccncc3)c2c1` [Example 21, 5-methoxy-3-(4-pyridinylamino)-1H-indole-2-carboxylic tert-butyl ester] yielded a melting point of 217 to 219 °C.
The molecule `CCOC(=O)c1c(Nc2ccncc2)c2ccc(Cl)cc2n1C` [Example 27, 6-Chloro-1-methyl-3-(4-pyridinylamino)-1H-indole-2-carboxylic ethyl ester] showed a melting point of 154 to 155 °C.
As to `O=C(O)c1[nH]c2ccccc2c1Nc1ccncc1` [Example 28, 3-(4-Pyridinylamino)-1H-indole-2-carboxylic acid], in data set [1], the “oral bioavailability (in words)” value is reported as “low oral bioavailability”. For the same molecule, in “Solubility (statement)”, the “solubility (in words)” value is “relatively low solubility”. In data set [2] (setting [3]), the “antigen-induced early bronchial response: acute increase in specific lung resistance (SRL)” value is recorded as “did not affect” and the “antigen-induced late bronchial response (SRL)” value is given as “blocked the late response”. The “post challenge airway responsiveness (decrease of PC400 after antigen challenge)” value in data set [2] (3 mg/kg, 2 sheep (FIG. 3B)) is given as “prevented this effect”.
`CCOC(=O)c1c(Nc2ccncc2)c2ccc(Cl)cc2n1CC(=O)N(CC)CC` [Example 34, 6-Chloro-1-diethylcarbamoylmethyl-3-(pyridin-4-ylamino)-1H-indole-2-carboxylic acid ethyl ester] displayed a melting point of 212 to 214 °C.
`CN(C(=O)c1ccc(Cl)cc1)c1c(C(=O)O)[nH]c2cc(Cl)cc(Cl)c12` [Example 80, 3-((4-chlorobenzoyl)methylamino)-4,6-dichloro-1H-indole-2-carboxylic acid] returned a melting point of 279 to 283 °C.
Same read-out and setting: as for `O=C(Nc1c(C(=O)O)[nH]c2cc(Cl)cc(Cl)c12)c1ccccc1Cc1ccccc1` [Example 87, 3-((2-Benzylbenzoyl)amino)-4,6-dichloro-1H-indole-2-carboxylic acid], the figure is 234 to 235 °C.
For `CN(C(=O)c1cccc(F)c1)c1c(C(=O)O)[nH]c2cc(Cl)cc(Cl)c12` [Example 88, 3-((3-Fluorobenzoyl)methylamino)-4,6-dichloro-1H-indole-2-carboxylic acid], the melting point was 270 to 280 °C.
For `NC(=O)c1[nH]c2ccccc2c1Nc1ccncc1` [Example 128, 3-(Pyridin-4-ylamino)-1H-indole-2-carboxamide], the melting point is 230 °C (dec.).
Regarding `CN(Cc1cnc2nc(N)nc(N)c2n1)c1ccc(C(=O)N[C@@H](CCC(=O)O)C(=O)O)cc1` [Methotrexate], the “viability … % control” value in the data set with Swiss 3T3 fibroblasts (mouse, 2 days, 0.03 μM) is on record as 100.0 % control.
